As usually defined, the Ki is a measure of affinity in units of concentration, obtained from inhibition or displacement.

This passage reports Ki results from US10633379B2, “Bromodomain inhibitors” (AbbVie Inc., priority 2016, dated 2020).

One assay deals with BRD4 (BDI_K57-E168) (Homo sapiens (Human), UniProt O60885). Briefly: TR-FRET bromodomain binding assay, BRD4 BDI. The conditions noted are these: mean Ki, calculated from IC50, probe Kd and probe concentration. An outline of the steps: (§1)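 Probe displacement measured by TR-FRET after 1 h at room temperature, in 20 mM sodium phosphate pH 6.0 and 2% DMSO. BDI used 12 nM protein with 100 nM probe, BDII 4 nM with 30 nM probe, each with 1 nM europium antibody. Ki derived from fitted IC50, probe Kd and probe level.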

The next assay concerns the target BRD4 (BDII_E352-M457) (Homo sapiens (Human), UniProt O60885). Briefly: TR-FRET bromodomain binding assay, BRD4 BDII. The conditions noted are these: mean Ki, calculated from IC50, probe Kd and probe concentration. In outline:
as §1

With `CCNC(=O)c1cc2c(-c3cc(C(O)(CC)C(C)CC)cnc3Oc3c(C)cccc3C)cn(C)c(=O)c2[nH]1` (stereo not drawn) [Example 13, 4-[2-(2,6-dimethylphenoxy)-5-(3-hydroxy-4-methylhexan-3-yl)pyridin-3-yl]-N-ethyl-6-methyl-7-oxo-6,7-dihydro-1H-pyrrolo[2,3-c]pyridine-2-carboxamide], the inhibition constant (Ki) on BRD4 (BDI_K57-E168) is 114 nM; at BRD4 (BDII_E352-M457), 2 nM.
For the molecule `CCNC(=O)c1cc2c(-c3cc(C(C)(C)O)ccc3Oc3c(C)cccc3C)cn(C)c(=O)c2[nH]1` [Example 3, 4-[2-(2,6-dimethylphenoxy)-5-(2-hydroxypropan-2-yl)phenyl]-N-ethyl-6-methyl-7-oxo-6,7-dihydro-1H-pyrrolo[2,3-c]pyridine-2-carboxamide], the Ki was 404 nM on BRD4 (BDI_K57-E168) and 1.1 nM on BRD4 (BDII_E352-M457).
On the same counts, the results for `CCNC(=O)c1cc2c(-c3cc(C(O)(C(C)CC)C4CC4)cnc3Oc3c(C)cccc3C)cn(C)c(=O)c2[nH]1` (stereo not drawn) [Example 27, 4-[5-(1-cyclopropyl-1-hydroxy-2-methylbutyl)-2-(2,6-dimethylphenoxy)pyridin-3-yl]-N-ethyl-6-methyl-7-oxo-6,7-dihydro-1H-pyrrolo[2,3-c]pyridine-2-carboxamide] are 44 nM and 1.8 nM.
On the same counts, the results for `Cc1cccc(C(F)(F)F)c1Oc1ccc(C(C)(O)CO)cc1-c1cn(C)c(=O)c2[nH]c(C(=O)NC(C)(C)C)cc12` (stereo not drawn) [Example 127, N-tert-butyl-4-{5-(1,2-dihydroxypropan-2-yl)-2-[2-methyl-6-(trifluoromethyl)phenoxy]phenyl}-6-methyl-7-oxo-6,7-dihydro-1H-pyrrolo[2,3-c]pyridine-2-carboxamide] are 6580 nM and 20.5 nM.
The corresponding values for `CCNC(=O)c1cc2c(-c3cc(C(C)(O)CO)ccc3Oc3c(C)cccc3Cl)cn(C)c(=O)c2[nH]1` (stereo not drawn) [Example 115, 4-[2-(2-chloro-6-methylphenoxy)-5-(1,2-dihydroxypropan-2-yl)phenyl]-N-ethyl-6-methyl-7-oxo-6,7-dihydro-1H-pyrrolo[2,3-c]pyridine-2-carboxamide] are 323 nM and 1.4 nM.
For `Cc1cccc(C(F)(F)F)c1Oc1ncc(C(C)(C)O)cc1-c1cn(C)c(=O)c2[nH]c(C(=O)NC(C)(C)C)cc12` [Example 45, N-tert-butyl-4-{5-(2-hydroxypropan-2-yl)-2-[2-methyl-6-(trifluoromethyl)phenoxy]pyridin-3-yl}-6-methyl-7-oxo-6,7-dihydro-1H-pyrrolo[2,3-c]pyridine-2-carboxamide], the figures for the Ki at BRD4 (BDI_K57-E168) and on BRD4 (BDII_E352-M457) were 1080 nM and 12.5 nM, respectively.
The corresponding values for `CCNC(=O)c1cc2c(-c3cc(C(O)(C4CC4)C4CC4)cnc3Oc3c(C)cccc3C)cn(C)c(=O)c2[nH]1` [Example 25, 4-{5-[dicyclopropyl(hydroxy)methyl]-2-(2,6-dimethylphenoxy)pyridin-3-yl}-N-ethyl-6-methyl-7-oxo-6,7-dihydro-1H-pyrrolo[2,3-c]pyridine-2-carboxamide] are 171 nM and 3 nM.
On the same counts, the results for `Cc1cc(S(C)(=O)=O)cc(C)c1Oc1ccc(C(C)(C)O)cc1-c1cn(C)c(=O)c2[nH]c(C(=O)NC(C)(C)C)cc12` [Example 90, N-tert-butyl-4-{5-(2-hydroxypropan-2-yl)-2-[4-(methanesulfonyl)-2,6-dimethylphenoxy]phenyl}-6-methyl-7-oxo-6,7-dihydro-1H-pyrrolo[2,3-c]pyridine-2-carboxamide] are 158 nM and 2 nM.
The corresponding values for `CCNC(=O)c1cc2c(-c3cc(C(C)(O)CF)cnc3Oc3c(C)cc(F)cc3C)cn(C)c(=O)c2[nH]1` (stereo not drawn) [Example 78, N-ethyl-4-[2-(4-fluoro-2,6-dimethylphenoxy)-5-(1-fluoro-2-hydroxypropan-2-yl)pyridin-3-yl]-6-methyl-7-oxo-6,7-dihydro-1H-pyrrolo[2,3-c]pyridine-2-carboxamide] are 253 nM and 2.2 nM.
For the molecule `CCNC(=O)c1cc2c(-c3cc(C(C)(O)CCc4ccccc4)cnc3Oc3c(C)cccc3C)cn(C)c(=O)c2[nH]1` (stereo not drawn) [Example 21, 4-[2-(2,6-dimethylphenoxy)-5-(2-hydroxy-4-phenylbutan-2-yl)pyridin-3-yl]-N-ethyl-6-methyl-7-oxo-6,7-dihydro-1H-pyrrolo[2,3-c]pyridine-2-carboxamide], the inhibition constant Ki at BRD4 (BDI_K57-E168) was 521 nM; on BRD4 (BDII_E352-M457) it was 1.5 nM.
On the same counts, the results for `CCNC(=O)c1cc2c(-c3cc(C4(O)CCC4)ccc3Oc3c(C)cc(F)cc3C)cn(C)c(=O)c2[nH]1` [Example 122, N-ethyl-4-[2-(4-fluoro-2,6-dimethylphenoxy)-5-(1-hydroxycyclobutyl)phenyl]-6-methyl-7-oxo-6,7-dihydro-1H-pyrrolo[2,3-c]pyridine-2-carboxamide] are 308 nM and 2 nM.
The corresponding values for `CCNC(=O)c1cc2c(-c3cc(C(C)(O)C(F)(F)F)ccc3Oc3c(C)cc(F)cc3C)cn(C)c(=O)c2[nH]1` (stereo not drawn) [Example 86, N-ethyl-4-[2-(4-fluoro-2,6-dimethylphenoxy)-5-(1,1,1-trifluoro-2-hydroxypropan-2-yl)phenyl]-6-methyl-7-oxo-6,7-dihydro-1H-pyrrolo[2,3-c]pyridine-2-carboxamide] are 416 nM and 1.4 nM.
The corresponding values for `CCNC(=O)c1cc2c(-c3cc(C(C)(C)O)ccc3Oc3c(C)cc(SC)cc3C)cn(C)c(=O)c2[nH]1` [Example 40, 4-{2-[2,6-dimethyl-4-(methylsulfanyl)phenoxy]-5-(2-hydroxypropan-2-yl)phenyl}-N-ethyl-6-methyl-7-oxo-6,7-dihydro-1H-pyrrolo[2,3-c]pyridine-2-carboxamide] are 773 nM and 2.1 nM.
For `CCNC(=O)c1cc2c(-c3cc(C(C)(O)CO)ccc3Oc3c(C)cccc3C(F)(F)F)cn(C)c(=O)c2[nH]1` (stereo not drawn) [Example 126, 4-{5-(1,2-dihydroxypropan-2-yl)-2-[2-methyl-6-(trifluoromethyl)phenoxy]phenyl}-N-ethyl-6-methyl-7-oxo-6,7-dihydro-1H-pyrrolo[2,3-c]pyridine-2-carboxamide], the Ki on BRD4 (BDI_K57-E168) is 1510 nM; on BRD4 (BDII_E352-M457), 6.3 nM.
For `Cc1cccc(C(F)(F)F)c1Oc1ncc(C(C)(C)O)cc1-c1cn(C)c(=O)c2[nH]c(C(=O)NC3(C)CC3(F)F)cc12` (stereo not drawn) [Example 47, N-(2,2-difluoro-1-methylcyclopropyl)-4-{5-(2-hydroxypropan-2-yl)-2-[2-methyl-6-(trifluoromethyl)phenoxy]pyridin-3-yl}-6-methyl-7-oxo-6,7-dihydro-1H-pyrrolo[2,3-c]pyridine-2-carboxamide], the inhibition constant Ki was 2060 nM at BRD4 (BDI_K57-E168) and 24.4 nM on BRD4 (BDII_E352-M457).
On the same counts, the results for `Cc1cc(F)cc(C)c1Oc1ccc(C(C)(C)O)cc1-c1cn(C)c(=O)c2[nH]c(C(=O)NC3(C)CC3(F)F)cc12` (stereo not drawn) [Example 60, N-(2,2-difluoro-1-methylcyclopropyl)-4-[2-(4-fluoro-2,6-dimethylphenoxy)-5-(2-hydroxypropan-2-yl)phenyl]-6-methyl-7-oxo-6,7-dihydro-1H-pyrrolo[2,3-c]pyridine-2-carboxamide] are 3510 nM and 7.5 nM.
The corresponding values for `CCNC(=O)c1cc2c(-c3cc(C(C)(C)O)ccc3Oc3c(C)cc(F)cc3Cl)cn(C)c(=O)c2[nH]1` [Example 49, 4-[2-(2-chloro-4-fluoro-6-methylphenoxy)-5-(2-hydroxypropan-2-yl)phenyl]-N-ethyl-6-methyl-7-oxo-6,7-dihydro-1H-pyrrolo[2,3-c]pyridine-2-carboxamide] are 284 nM and 1 nM.
Turning to `CCNC(=O)c1cc2c(-c3cc(C(C)(C)O)c(F)cc3Oc3c(C)cc(F)cc3C)cn(C)c(=O)c2[nH]1` [Example 65, N-ethyl-4-[4-fluoro-2-(4-fluoro-2,6-dimethylphenoxy)-5-(2-hydroxypropan-2-yl)phenyl]-6-methyl-7-oxo-6,7-dihydro-1H-pyrrolo[2,3-c]pyridine-2-carboxamide], the Ki is 222 nM on BRD4 (BDI_K57-E168) and 1.3 nM on BRD4 (BDII_E352-M457).
On the same counts, the results for `CCNC(=O)c1cc2c(-c3cc(C(C)(C)O)c(F)cc3Oc3c(C)cccc3C)cn(C)c(=O)c2[nH]1` [Example 64, 4-[2-(2,6-dimethylphenoxy)-4-fluoro-5-(2-hydroxypropan-2-yl)phenyl]-N-ethyl-6-methyl-7-oxo-6,7-dihydro-1H-pyrrolo[2,3-c]pyridine-2-carboxamide] are 181 nM and 0.4 nM.
On the same counts, the results for `CCNC(=O)c1cc2c(-c3cc(C4(O)CC=CC4)cnc3Oc3c(C)cccc3C)cn(C)c(=O)c2[nH]1` [Example 4, 4-[2-(2,6-dimethylphenoxy)-5-(1-hydroxycyclopent-3-en-1-yl)pyridin-3-yl]-N-ethyl-6-methyl-7-oxo-6,7-dihydro-1H-pyrrolo[2,3-c]pyridine-2-carboxamide] are 215 nM and 3.1 nM.
For `Cc1cccc(C)c1Oc1ccc(C(C)(C)O)cc1-c1cn(C)c(=O)c2[nH]c(C(N)=O)cc12` [Example 117, 4-[2-(2,6-dimethylphenoxy)-5-(2-hydroxypropan-2-yl)phenyl]-6-methyl-7-oxo-6,7-dihydro-1H-pyrrolo[2,3-c]pyridine-2-carboxamide], the Ki is 215 nM at BRD4 (BDI_K57-E168) and 1.5 nM at BRD4 (BDII_E352-M457).
